Test results published in ChEMBL document CHEMBL3414446, “Neoechinulin B and its analogues as potential entry inhibitors of influenza viruses, targeting viral hemagglutinin” (Eur J Med Chem, 2015).

Assays:
Influenza A virus [1] = test: Antiviral activity against amantadine and ribavirin-resistant influenza A virus A/HuNan-huHui/1222/2010 (H3N2) strain; assay type: functional, organism-based
Influenza A virus [2] = test: Antiviral activity against OSV-resistant influenza A virus A/LiaoNing-ZhenXing/1109/2010 (H1N1) strain; assay type: functional, organism-based

| Compound | IC50 (Influenza A virus [1]) | IC50 (Influenza A virus [2]) |
| --- | --- | --- |
| CCOC(=O)C1=C[C@@H](OC(CC)CC)[C@H](NC(C)=O)[C@@H](N)C1 [OSELTAMIVIR] | > 20.5 µM | > 200 µM |
| NC(=O)c1ncn([C@@H]2O[C@H](CO)[C@@H](O)[C@H]2O)n1 [RIBAVIRIN] | > 150 µM | 1.05 µM |
| NC12CC3CC(CC(C3)C1)C2 [AMANTADINE] | > 200 µM | 0.82 µM |
| C=CC(C)(C)c1[nH]c2ccccc2c1/C=c1\[nH]c(=O)c(=C)[nH]c1=O [NEOECHINULIN B] | 22.2 µM | 16.9 µM |
